The results in this text go back to ChEMBL document CHEMBL1201862, “PubChem BioAssay data set” (2004).

Test systems include CCRF-CEM; HCT-116; HOP-62; HOP-92; M14; M19-MEL; MOLT-4; Malme-3M; NCI-H226; NCI-H460; SK-MEL-2; SR; UACC-62; SK-MEL-28; TK-10; UACC-257; A498; SNB-19.
Test in all cases: NCI tumour cell line growth inhibition, 48 h

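Exposure lasted 48 hours, with cells grown in 96-well plates and compounds tested at five concentrations. Abbreviation: GI50, concentration required for 50% inhibition of growth.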 The source made the active and inactive calls. No stated cut-off is given here; in the data, active = GI50 up to about 1.1 µM and inactive = higher.

Consider `CC1CC2C(=O)N(c3ccccc3)C(=O)C2c2c1c1ccccc1n2Cc1ccccc1` (configuration not stated), for which the GI50 is > 100 µM (inactive) with CCRF-CEM; 29.3 µM (inactive) with HCT-116; > 100 µM (inactive) in the assay on HOP-62; 9.84 µM (inactive) in the assay on HOP-92; > 100 µM (inactive) in the assay on M14; > 100 µM (inactive) in the assay with M19-MEL. The GI50 with MOLT-4 was 58.5 µM (inactive); with Malme-3M it was > 100 µM (inactive); in the assay on NCI-H226, 33.3 µM (inactive); in the assay on NCI-H460 it was > 100 µM (inactive); in the assay with SK-MEL-2, > 100 µM (inactive); in the assay with SR it was 27.2 µM (inactive). Further, in the assay on UACC-62, the GI50 was > 100 µM (inactive).
As to `CCOC(=O)/C(Br)=C1\OC(=O)c2ccccc2-c2ccccc21`, the GI50 with CCRF-CEM is 23.3 µM (inactive); with HCT-116, 43.3 µM (inactive); with HOP-62, 24.2 µM (inactive); in the assay with HOP-92 it was 24.3 µM (inactive); with M14 it was 40.4 µM (inactive); with M19-MEL, 51.1 µM (inactive). Further, the GI50 is 25.9 µM (inactive) with MOLT-4; 47.2 µM (inactive) in the assay on Malme-3M; 23.4 µM (inactive) in the assay with NCI-H226; 61.4 µM (inactive) in the assay on SK-MEL-28; 64 µM (inactive) with SK-MEL-2; 22 µM (inactive) in the assay on SR. Also, the GI50 is 60.7 µM (inactive) in the assay with TK-10, 58.5 µM (inactive) with UACC-257 and 44.4 µM (inactive) in the assay on UACC-62.
`CCO/C([O-])=C(\C(=O)c1ccc([N+](=O)[O-])cc1)[n+]1c(C)n(C)c2ccccc21`: the GI50 with A498, in the assay on CCRF-CEM, in the assay on HCT-116, in the assay on HOP-62, in the assay on M14 and in the assay with M19-MEL was > 100 µM (inactive) each time. The GI50 in the assay on MOLT-4, in the assay on Malme-3M, with NCI-H226, with NCI-H460, with SK-MEL-28 and in the assay on SK-MEL-2 was > 100 µM (inactive) in each case. The GI50 in the assay with SNB-19, in the assay on TK-10, in the assay on UACC-257 and in the assay with UACC-62 was > 100 µM (inactive) throughout.
On to `C1=C(c2ccccc2)CN(c2ccccc2)OC1`, for which the GI50 in the assay on CCRF-CEM is > 100 µM (inactive); in the assay on HOP-62 it was > 100 µM (inactive); with M14, 83.8 µM (inactive); in the assay with M19-MEL, 47.5 µM (inactive); in the assay on MOLT-4 it was 74.5 µM (inactive); in the assay with Malme-3M, > 100 µM (inactive). Besides, the GI50 is > 100 µM (inactive) in the assay on NCI-H226; > 100 µM (inactive) with NCI-H460; 79.8 µM (inactive) in the assay with SK-MEL-28; 50.6 µM (inactive) in the assay with SK-MEL-2; > 100 µM (inactive) with SNB-19; 55.3 µM (inactive) in the assay on SR. In addition, the GI50 was > 100 µM (inactive) in the assay on TK-10 and 67.3 µM (inactive) in the assay with UACC-62.
Take `NNC(=O)CCC(=O)NC1C2CC3CC(C2)CC1C3` (configuration not stated): the GI50 in the assay on A498, in the assay with CCRF-CEM, in the assay with HCT-116, in the assay on HOP-62, in the assay on HOP-92 and with M14 was > 100 µM (inactive) in each case. For the same compound, the GI50 was > 100 µM (inactive) in the assay on M19-MEL; 43.5 µM (inactive) in the assay on MOLT-4; > 100 µM (inactive) in the assay on Malme-3M; > 100 µM (inactive) in the assay on NCI-H226; > 100 µM (inactive) in the assay with NCI-H460; > 100 µM (inactive) with SK-MEL-28. For the same compound, the GI50 in the assay on SK-MEL-2, in the assay with SNB-19, with TK-10, in the assay with UACC-257 and in the assay on UACC-62 was > 100 µM (inactive) each time.
Regarding `CN(C)C(=S)/N=c1\ss/c(=N\c2ccccc2)n1-c1ccccc1`, the GI50 with A498 is 34 µM (inactive); in the assay on CCRF-CEM, 0.435 µM (active); in the assay on HOP-62, 27.2 µM (inactive); in the assay with HOP-92 it was 12.5 µM (inactive); in the assay with M14, 14.7 µM (inactive); with M19-MEL, 24.7 µM (inactive). The GI50 in the assay with MOLT-4 was 30 µM (inactive); in the assay on Malme-3M it was 21.3 µM (inactive); in the assay on NCI-H226, 10.7 µM (inactive); with SK-MEL-28, 29 µM (inactive); in the assay with SK-MEL-2, 29.5 µM (inactive); in the assay with TK-10 it was 25.8 µM (inactive). Further, the GI50 with UACC-257 is 24.2 µM (inactive).
Consider `OC1OCC(COc2cc(Cl)c(Cl)cc2Cl)OC1O` (configuration not stated), for which the GI50 in the assay on A498 was 44.5 µM (inactive); in the assay with CCRF-CEM, 32 µM (inactive); with HCT-116, 18.9 µM (inactive); in the assay with HOP-62, 76.7 µM (inactive); with HOP-92, 56.1 µM (inactive); with M14, 30.1 µM (inactive). The GI50 in the assay on M19-MEL is 66.1 µM (inactive); with MOLT-4 it was 32.2 µM (inactive); with Malme-3M, 61.2 µM (inactive); in the assay with NCI-H226 it was 41.5 µM (inactive); with NCI-H460 it was 44.5 µM (inactive); with SK-MEL-28, 65.3 µM (inactive). The GI50 was 33 µM (inactive) with SNB-19, > 100 µM (inactive) in the assay on TK-10, 35.9 µM (inactive) in the assay with UACC-257 and 33 µM (inactive) in the assay with UACC-62.
`NC(=O)N/N=C(\CCC(=O)N(Cc1ccccc1)Cc1ccccc1)CC(=O)c1ccc(F)cc1`: the GI50 with CCRF-CEM, with HCT-116, in the assay on HOP-62, in the assay on M14, with M19-MEL and in the assay with MOLT-4 was > 100 µM (inactive) in each case. Further, the GI50 with Malme-3M, with NCI-H226, in the assay with NCI-H460, in the assay with SK-MEL-28, in the assay on SK-MEL-2 and in the assay with SNB-19 was > 100 µM (inactive) each time. In addition, the GI50 in the assay with SR, in the assay with TK-10, in the assay with UACC-257 and with UACC-62 was > 100 µM (inactive) in each case.
For `O=C(CSc1nnc(-c2ccc(/N=C\c3ccc(Cl)cc3)cc2)o1)Nc1ccccc1[N+](=O)[O-]`, the GI50 with CCRF-CEM, with HCT-116, in the assay on HOP-62, in the assay with M14, in the assay on M19-MEL and in the assay with MOLT-4 was > 100 µM (inactive) throughout. Moreover, the GI50 in the assay on Malme-3M, in the assay with NCI-H226, in the assay on NCI-H460, with SK-MEL-28, with SK-MEL-2 and with SNB-19 was > 100 µM (inactive) throughout. The GI50 with SR, with TK-10, with UACC-257 and in the assay on UACC-62 was > 100 µM (inactive) in each case.
Turning to `FC(F)(F)c1nc(-c2ccccc2Cl)[nH]c1C(F)(F)F`, the GI50 is 0.504 µM (active) in the assay on CCRF-CEM; 0.729 µM (active) with HCT-116; 0.394 µM (active) with HOP-62; 0.408 µM (active) in the assay on HOP-92; 1.12 µM (inactive) in the assay on M14; 0.697 µM (active) in the assay with M19-MEL. Moreover, the GI50 is 0.991 µM (active) in the assay on MOLT-4; 0.861 µM (active) in the assay with Malme-3M; 0.61 µM (active) in the assay on NCI-H226; 0.859 µM (active) with NCI-H460; 1.21 µM (inactive) with SK-MEL-28; 0.501 µM (active) with SK-MEL-2. In addition, the GI50 was 0.571 µM (active) in the assay with SNB-19; 0.456 µM (active) with SR; 1.13 µM (inactive) with TK-10; 0.646 µM (active) in the assay on UACC-257; 0.766 µM (active) with UACC-62.
On to `CCC(/C(=N/NC(=O)C[N+](C)(C)C)c1ccccc1)C1OC(=O)c2ccccc21` (configuration not stated), for which the GI50 with CCRF-CEM, in the assay with HCT-116, in the assay with HOP-62, in the assay with HOP-92, in the assay with M14 and in the assay with M19-MEL was > 100 µM (inactive) throughout. Moreover, the GI50 in the assay on MOLT-4, with Malme-3M, with NCI-H226, with NCI-H460, with SK-MEL-28 and in the assay with SNB-19 was > 100 µM (inactive) in each case. In addition, the GI50 with SR, with TK-10, in the assay on UACC-257 and with UACC-62 was > 100 µM (inactive) in each case.
With `COc1ccc(OCC(=O)O)c2c1CCC(C(C)C)C2=O` (configuration not stated), the GI50 was > 100 µM (inactive) in the assay with A498; > 100 µM (inactive) in the assay on CCRF-CEM; > 100 µM (inactive) with HCT-116; > 100 µM (inactive) in the assay with HOP-62; 80.2 µM (inactive) in the assay on HOP-92; > 100 µM (inactive) with M14. The GI50 with M19-MEL, with MOLT-4, with Malme-3M, with NCI-H460, in the assay on SK-MEL-28 and with SK-MEL-2 was > 100 µM (inactive) in each case. For the same compound, the GI50 with SNB-19, in the assay on TK-10, in the assay on UACC-257 and in the assay with UACC-62 was > 100 µM (inactive) throughout.
Regarding `Cc1nc2ccccc2c(=O)[nH]1`, the GI50 in the assay with A498, in the assay on CCRF-CEM, in the assay on HCT-116, in the assay on HOP-62, in the assay with HOP-92 and in the assay on M14 was > 100 µM (inactive) throughout. The GI50 in the assay with M19-MEL, in the assay with MOLT-4, in the assay on Malme-3M, in the assay with NCI-H226, in the assay on NCI-H460 and in the assay with SK-MEL-28 was > 100 µM (inactive) in each case. Besides, the GI50 in the assay with SK-MEL-2, in the assay on SNB-19, in the assay on TK-10, in the assay on UACC-257 and in the assay with UACC-62 was > 100 µM (inactive) throughout.
